Here are results for 5 molecules from ChEMBL document CHEMBL5576052, “Design, synthesis, and biological evaluation of new bis-benzylisoquinoline-based analogues as potential neuromuscular blocking agents” (Bioorg Med Chem Lett, 2024).

Common to all, as to assay type: functional
The test system of assay [1] is Oryctolagus cuniculus. Kind of assay: Neuromuscular blocking in rabbit model of propofol-induced anesthesia assessed as time duration of 25 to 90 percent recovery indices at 272.7 nmol/kg by train-of-four response method.
The subject of assay [2] is Oryctolagus cuniculus. Kind of assay: Neuromuscular blocking in rabbit model of propofol-induced anesthesia assessed as time duration of 25 to 75 percent recovery indices at 272.7 nmol/kg by train-of-four response method.
Assay [3] has as its system Oryctolagus cuniculus. Briefly: Neuromuscular blocking in rabbit model of propofol-induced anesthesia assessed as time duration of 75 to 90 percent recovery indices at 0.33 mg/kg of inductive dose with continuous infusion of compound measured for 0.5 hrs by train-of-four response method.
The subject of assay [4] is Oryctolagus cuniculus. Briefly: Neuromuscular blocking in rabbit model of propofol-induced anesthesia assessed as maximal blockade at 272.7 nmol/kg by train-of-four response method relative to control.
The subject of assay [5] is Oryctolagus cuniculus. Kind of assay: Neuromuscular blocking in rabbit model of propofol-induced anesthesia assessed as time duration of 25 to 90 percent recovery indices at 0.33 mg/kg of inductive dose with continuous infusion of compound measured for 0.5 hrs by train-of-four response method.
For assay [6], the system named is Oryctolagus cuniculus. Kind of assay: Neuromuscular blocking in rabbit model of propofol-induced anesthesia assessed as effective blocking time by measuring duration from administration to 25 percent recovery at 272.7 nmol/kg by train-of-four response method.
For assay [7], the system named is Oryctolagus cuniculus. Kind of assay: Neuromuscular blocking in rabbit model of propofol-induced anesthesia assessed as duration of time for maximal blockade at 272.7 nmol/kg by train-of-four response method.
In assay [8] the test system is Oryctolagus cuniculus. Kind of assay: Neuromuscular blocking in rabbit model of propofol-induced anesthesia assessed as time duration of 25 to 75 percent recovery indices at 0.33 mg/kg of inductive dose with continuous infusion of compound measured for 0.5 hrs by train-of-four response method.
The test system of assay [9] is Oryctolagus cuniculus. Briefly: Neuromuscular blocking in rabbit model of propofol-induced anesthesia assessed as onset time at 272.7 nmol/kg by train-of-four response method.
Assay [10] concerns Oryctolagus cuniculus. Briefly: Neuromuscular blocking in rabbit model of propofol-induced anesthesia assessed as maximal blockade at 27.27 nmol/kg by train-of-four response method relative to control.
Assay [11] concerns Oryctolagus cuniculus. Briefly: Neuromuscular blocking in rabbit model of propofol-induced anesthesia assessed as time duration of 25 to 75 percent recovery indices at 27.27 nmol/kg by train-of-four response method.
For assay [12], the system named is Oryctolagus cuniculus. Briefly: Neuromuscular blocking in rabbit model of propofol-induced anesthesia assessed as duration of time for maximal blockade at 27.27 nmol/kg by train-of-four response method.
Assay [13] has as its system Oryctolagus cuniculus. Briefly: Neuromuscular blocking in rabbit model of propofol-induced anesthesia assessed as effective blocking time by measuring duration from administration to 25 percent recovery at 27.27 nmol/kg by train-of-four response method.
Assay [14] has as its system Oryctolagus cuniculus. Briefly: Neuromuscular blocking in rabbit model of propofol-induced anesthesia assessed as onset time at 27.27 nmol/kg by train-of-four response method.
Assay [15] has as its system Oryctolagus cuniculus. Briefly: Neuromuscular blocking in rabbit model of propofol-induced anesthesia assessed as time duration of 25 to 90 percent recovery indices at 27.27 nmol/kg by train-of-four response method.
The test system of assay [16] is Oryctolagus cuniculus. Kind of assay: Neuromuscular blocking in rabbit model of propofol-induced anesthesia assessed as time duration of 25 to 90 percent recovery indices at 0.06 mg/kg of inductive dose with continuous infusion of compound measured for 1 hr by train-of-four response method.
Assay [17] has as its system Oryctolagus cuniculus. Briefly: Neuromuscular blocking in rabbit model of propofol-induced anesthesia assessed as time duration of 75 to 90 percent recovery indices at 0.06 mg/kg of inductive dose with continuous infusion of compound measured for 1 hr by train-of-four response method.
Assay [18] relates to Oryctolagus cuniculus. Kind of assay: Neuromuscular blocking in rabbit model of propofol-induced anesthesia assessed as time duration of 75 to 90 percent recovery indices at 0.06 mg/kg of inductive dose with continuous infusion of compound measured for 0.5 hrs by train-of-four response method.
Assay [19] relates to Oryctolagus cuniculus. Kind of assay: Neuromuscular blocking in rabbit model of propofol-induced anesthesia assessed as time duration of 25 to 75 percent recovery indices at 0.06 mg/kg of inductive dose with continuous infusion of compound measured for 0.5 hrs by train-of-four response method.
Assay [20] relates to Oryctolagus cuniculus. Kind of assay: Neuromuscular blocking in rabbit model of propofol-induced anesthesia assessed as time duration of 25 to 90 percent recovery indices at 0.06 mg/kg of inductive dose with continuous infusion of compound measured for 0.5 hrs by train-of-four response method.
For assay [21], the system named is Oryctolagus cuniculus. Kind of assay: Neuromuscular blocking in rabbit model of propofol-induced anesthesia assessed as time duration of 25 to 75 percent recovery indices at 0.06 mg/kg of inductive dose with continuous infusion of compound measured for 1 hr by train-of-four response method.
Assay [22] concerns Oryctolagus cuniculus. Kind of assay: Neuromuscular blocking in rabbit model of propofol-induced anesthesia assessed as time duration of 25 to 90 percent recovery indices at 0.06 mg/kg of inductive dose with continuous infusion of compound measured for 2 hrs by train-of-four response method.
For assay [23], the system named is Oryctolagus cuniculus. Kind of assay: Neuromuscular blocking in rabbit model of propofol-induced anesthesia assessed as time duration of 25 to 75 percent recovery indices at 0.06 mg/kg of inductive dose with continuous infusion of compound measured for 2 hrs by train-of-four response method.
The test system of assay [24] is Oryctolagus cuniculus. Kind of assay: Neuromuscular blocking in rabbit model of propofol-induced anesthesia assessed as time duration of 75 to 90 percent recovery indices at 0.06 mg/kg of inductive dose with continuous infusion of compound measured for 2 hrs by train-of-four response method.

Each structure is given as a SMILES string.

Usually Emax stands for the size of the effect at its maximum, as opposed to the concentration needed. Take `COc1cc2c(cc1OC)[C@@H](Cc1cc(OC)c(OC)c(OC)c1)[N+](C)(CCC(=O)OC/C=C\COC(=O)CC[N+]1(C)CCc3cc(OC)c(OC)cc3[C@H]1Cc1cc(OC)c(OC)c(OC)c1)CC2.O=S(=O)([O-])c1ccccc1.O=S(=O)([O-])c1ccccc1` (stereo not given in full): the Time was 10.25 min in the assay with Oryctolagus cuniculus [1]; 7.5 min in the assay on Oryctolagus cuniculus [2]; 3.17 min with Oryctolagus cuniculus [3]; 11.17 min with Oryctolagus cuniculus [5]; 11.83 min in the assay on Oryctolagus cuniculus [6]; 8.25 min with Oryctolagus cuniculus [7]. Further, the Time in the assay with Oryctolagus cuniculus [8] was found to be 8 min; in the assay with Oryctolagus cuniculus [9] it was 1.67 min. For the same molecule, the maximum response (Emax) at 0.2727 µmol/kg with Oryctolagus cuniculus [4] amounted to 100%.
Regarding `COc1cc2c(cc1OC)[C@@H](Cc1cc(OC)c(OC)c(OC)c1)[N+](C)(CCCOC(=O)CCCC(=O)OCCC[N+]1(C)CCc3cc(OC)c(OC)cc3[C@H]1Cc1cc(OC)c(OC)c(OC)c1)CC2.[Cl-].[Cl-]` (stereo not given in full), the maximum response (Emax) at 0.02727 µmol/kg in the assay on Oryctolagus cuniculus [10] was 100%. In addition, the Time in the assay on Oryctolagus cuniculus [1] is on record as 12 min; in the assay with Oryctolagus cuniculus [2], 7.67 min; in the assay on Oryctolagus cuniculus [11], 7.75 min; with Oryctolagus cuniculus [12], 8.08 min; in the assay with Oryctolagus cuniculus [13] it was 11.67 min; in the assay on Oryctolagus cuniculus [6] it was 73.08 min. Also, the Time in the assay with Oryctolagus cuniculus [7] came out at 66.5 min; in the assay on Oryctolagus cuniculus [14], 2.58 min; in the assay with Oryctolagus cuniculus [15], 11.77 min; in the assay with Oryctolagus cuniculus [9], 0.75 min. Also, in the assay with Oryctolagus cuniculus [4], the Emax at 0.2727 µmol/kg was 100%.
Regarding `COc1cc2c(cc1OC)[C@@H](Cc1cc(OC)c(OC)c(OC)c1)[N@@+](C)(CCCOC(=O)CC/C=C/CCC(=O)OCCC[N@+]1(C)CCc3cc(OC)c(OC)cc3[C@H]1Cc1cc(OC)c(OC)c(OC)c1)CC2.[Cl-].[Cl-]` (mixture of isomers), the Emax at 0.02727 µmol/kg with Oryctolagus cuniculus [10] came to 80%. Further, the Time is listed as 13.42 min with Oryctolagus cuniculus [1]; 10.5 min in the assay with Oryctolagus cuniculus [2]; 4.92 min with Oryctolagus cuniculus [11]; 1.92 min in the assay on Oryctolagus cuniculus [12]; 12.42 min with Oryctolagus cuniculus [16]; 5.33 min in the assay on Oryctolagus cuniculus [17]. For the same molecule, the Time was determined as 4.2 min in the assay on Oryctolagus cuniculus [18]; 24.5 min in the assay on Oryctolagus cuniculus [6]; 21.42 min in the assay with Oryctolagus cuniculus [7]; 6.9 min with Oryctolagus cuniculus [19]; 11.1 min in the assay with Oryctolagus cuniculus [20]; 3.58 min in the assay on Oryctolagus cuniculus [14]. The Time turned out to be 8.92 min in the assay on Oryctolagus cuniculus [15], 7.08 min in the assay with Oryctolagus cuniculus [21] and 0.83 min in the assay on Oryctolagus cuniculus [9]. Also, the Emax at 0.2727 µmol/kg in the assay on Oryctolagus cuniculus [4] came out at 100%.
As to `COc1cc2c(cc1OC)[C@@H](Cc1cc(OC)c(OC)c(OC)c1)[N@+](C)(CCCOC(=O)CC/C=C/CCC(=O)OCCC[N@+]1(C)CCc3cc(OC)c(OC)cc3[C@H]1Cc1cc(OC)c(OC)c(OC)c1)CC2.[Cl-].[Cl-]`, in the assay with Oryctolagus cuniculus [10], the maximal effect (Emax) at 0.02727 µmol/kg is 100%. For the same molecule, the Time is listed as 7.75 min in the assay on Oryctolagus cuniculus [22]; 13.92 min in the assay on Oryctolagus cuniculus [1]; 4.58 min with Oryctolagus cuniculus [23]; 11.25 min in the assay on Oryctolagus cuniculus [2]; 9.22 min in the assay on Oryctolagus cuniculus [11]; 4.25 min in the assay on Oryctolagus cuniculus [12]. The Time with Oryctolagus cuniculus [16] is listed as 9.63 min; in the assay on Oryctolagus cuniculus [17], 2.67 min; with Oryctolagus cuniculus [18], 3.6 min; with Oryctolagus cuniculus [13] it was 5.58 min; in the assay with Oryctolagus cuniculus [6] it was 19.58 min; in the assay on Oryctolagus cuniculus [7], 14.67 min. The Time is 7.13 min with Oryctolagus cuniculus [19]; 10.73 min with Oryctolagus cuniculus [20]; 1.88 min in the assay with Oryctolagus cuniculus [14]; 3.17 min with Oryctolagus cuniculus [24]; 15.08 min in the assay with Oryctolagus cuniculus [15]; 6.96 min in the assay on Oryctolagus cuniculus [21]. Further, the Time in the assay with Oryctolagus cuniculus [9] came out at 0.67 min. Besides, the Emax at 0.2727 µmol/kg in the assay with Oryctolagus cuniculus [4] amounted to 100%.
Consider `COc1cc2c(cc1OC)[C@@H](Cc1cc(OC)c(OC)c(OC)c1)[N+](C)(CCCOC(=O)CC/C=C/CCC(=O)OCCC[N+]1(C)CCc3cc(OC)c(OC)cc3[C@H]1Cc1cc(OC)c(OC)c(OC)c1)CC2.[Cl-].[Cl-]` (stereo not given in full) [MIVACURIUM CHLORIDE], for which the Emax at 0.02727 µmol/kg in the assay on Oryctolagus cuniculus [10] is 100%. For the same molecule, the Time in the assay on Oryctolagus cuniculus [22] is listed as 9 min; with Oryctolagus cuniculus [1] it was 9.71 min; in the assay with Oryctolagus cuniculus [23], 4.92 min; in the assay on Oryctolagus cuniculus [2] it was 6.54 min; with Oryctolagus cuniculus [11], 7.75 min; with Oryctolagus cuniculus [12] it was 4.42 min. Besides, the Time in the assay on Oryctolagus cuniculus [16] came to 11.79 min; in the assay on Oryctolagus cuniculus [17], 3.29 min; in the assay on Oryctolagus cuniculus [18] it was 3.5 min; in the assay on Oryctolagus cuniculus [13], 7.92 min; in the assay with Oryctolagus cuniculus [6] it was 18.57 min; with Oryctolagus cuniculus [7], 15.79 min. The Time with Oryctolagus cuniculus [19] is listed as 8 min; in the assay on Oryctolagus cuniculus [20], 11.5 min; with Oryctolagus cuniculus [14] it was 1.58 min; with Oryctolagus cuniculus [24], 4.83 min; in the assay with Oryctolagus cuniculus [15], 11.42 min; with Oryctolagus cuniculus [21] it was 8.5 min. In addition, in the assay with Oryctolagus cuniculus [9], the Time was found to be 0.79 min. In addition, in the assay on Oryctolagus cuniculus [4], the maximal effect (Emax) at 0.2727 µmol/kg stood at 100%.
